Common to all, as to type: cell-based
The target of experiment [1] is T1, Bile acid receptor (Homo sapiens, UniProt Q96RI1).
T1 sequence (Q96RI1 whole entry): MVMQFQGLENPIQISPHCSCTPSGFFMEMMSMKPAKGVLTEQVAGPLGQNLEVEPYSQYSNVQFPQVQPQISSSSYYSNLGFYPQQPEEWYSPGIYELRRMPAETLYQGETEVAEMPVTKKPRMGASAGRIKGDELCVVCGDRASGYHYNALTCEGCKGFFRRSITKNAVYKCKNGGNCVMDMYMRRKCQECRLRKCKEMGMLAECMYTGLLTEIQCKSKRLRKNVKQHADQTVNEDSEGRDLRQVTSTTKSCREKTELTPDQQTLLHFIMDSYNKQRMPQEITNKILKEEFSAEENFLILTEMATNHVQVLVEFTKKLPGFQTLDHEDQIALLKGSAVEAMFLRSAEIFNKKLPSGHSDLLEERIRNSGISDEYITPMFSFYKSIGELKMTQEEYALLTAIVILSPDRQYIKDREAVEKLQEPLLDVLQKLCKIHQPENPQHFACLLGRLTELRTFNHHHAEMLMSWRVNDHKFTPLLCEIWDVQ
The experiment is described as follows: Agonist activity at FXR (unknown origin) transfected in human HepG2 cells incubated for 24 hrs by luciferase assay.

Experiment [2] concerns the target T2, Androgen receptor (Homo sapiens, UniProt P10275).
T2 sequence (P10275 whole entry): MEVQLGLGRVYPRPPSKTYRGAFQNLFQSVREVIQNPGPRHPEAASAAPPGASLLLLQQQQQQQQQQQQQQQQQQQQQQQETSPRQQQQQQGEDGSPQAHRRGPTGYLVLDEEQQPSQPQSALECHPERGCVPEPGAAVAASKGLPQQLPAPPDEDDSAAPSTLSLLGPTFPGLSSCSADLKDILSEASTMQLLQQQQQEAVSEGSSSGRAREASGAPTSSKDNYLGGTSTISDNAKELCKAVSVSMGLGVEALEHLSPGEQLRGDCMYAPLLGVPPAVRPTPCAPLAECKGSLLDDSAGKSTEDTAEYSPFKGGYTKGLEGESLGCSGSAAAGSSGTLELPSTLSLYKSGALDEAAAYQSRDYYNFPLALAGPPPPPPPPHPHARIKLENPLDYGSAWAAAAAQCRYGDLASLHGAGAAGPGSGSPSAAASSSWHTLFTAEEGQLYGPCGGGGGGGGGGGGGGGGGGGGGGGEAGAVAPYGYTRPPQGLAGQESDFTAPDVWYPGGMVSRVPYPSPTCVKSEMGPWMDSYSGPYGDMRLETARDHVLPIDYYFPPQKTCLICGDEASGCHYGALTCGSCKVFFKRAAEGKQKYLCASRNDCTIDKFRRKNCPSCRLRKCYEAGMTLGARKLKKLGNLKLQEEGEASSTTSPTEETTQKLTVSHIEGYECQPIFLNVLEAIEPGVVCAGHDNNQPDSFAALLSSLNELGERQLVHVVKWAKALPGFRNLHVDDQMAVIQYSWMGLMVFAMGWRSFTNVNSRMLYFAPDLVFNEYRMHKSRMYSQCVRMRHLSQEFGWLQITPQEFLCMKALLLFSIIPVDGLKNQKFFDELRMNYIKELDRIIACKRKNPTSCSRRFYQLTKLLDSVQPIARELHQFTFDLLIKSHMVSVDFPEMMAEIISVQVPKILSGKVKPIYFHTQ
Put plainly: Agonist activity at androgen receptor (unknown origin) transfected in green monkey CV-1 cells co-transfected with NHR responsive luciferase reporter incubated for 18 hrs by luciferase assay. A general note: A reporter such as luciferase makes a cellular process visible.

Experiment [3] concerns the target T3, Progesterone receptor (Homo sapiens, UniProt P06401).
T3 sequence (P06401 whole entry): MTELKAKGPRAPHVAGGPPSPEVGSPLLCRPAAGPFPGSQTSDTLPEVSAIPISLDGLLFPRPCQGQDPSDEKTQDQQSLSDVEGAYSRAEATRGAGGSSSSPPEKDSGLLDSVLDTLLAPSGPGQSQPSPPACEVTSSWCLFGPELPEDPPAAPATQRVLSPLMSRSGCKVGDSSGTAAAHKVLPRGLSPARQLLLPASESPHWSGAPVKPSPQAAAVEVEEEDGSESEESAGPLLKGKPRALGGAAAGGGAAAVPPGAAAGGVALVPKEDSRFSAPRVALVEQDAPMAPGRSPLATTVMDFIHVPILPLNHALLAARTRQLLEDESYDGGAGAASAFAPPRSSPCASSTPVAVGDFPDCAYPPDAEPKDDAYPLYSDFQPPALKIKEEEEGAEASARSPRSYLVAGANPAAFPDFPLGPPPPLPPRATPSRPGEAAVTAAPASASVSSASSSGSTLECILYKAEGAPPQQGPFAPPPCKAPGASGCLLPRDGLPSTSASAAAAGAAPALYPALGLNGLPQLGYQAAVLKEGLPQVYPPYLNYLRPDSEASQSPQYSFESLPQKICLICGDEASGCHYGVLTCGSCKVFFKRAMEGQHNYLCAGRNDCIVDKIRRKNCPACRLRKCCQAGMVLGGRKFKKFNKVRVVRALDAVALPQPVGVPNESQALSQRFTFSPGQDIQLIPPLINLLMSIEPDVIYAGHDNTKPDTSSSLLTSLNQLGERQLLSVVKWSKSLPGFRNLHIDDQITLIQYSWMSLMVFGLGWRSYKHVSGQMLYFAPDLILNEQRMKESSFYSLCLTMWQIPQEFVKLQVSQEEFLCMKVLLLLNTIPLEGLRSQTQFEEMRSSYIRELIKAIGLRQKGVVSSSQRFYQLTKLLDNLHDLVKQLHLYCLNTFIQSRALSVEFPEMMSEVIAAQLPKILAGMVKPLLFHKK
Put plainly: Agonist activity at progesterone receptor (unknown origin) transfected in green monkey CV-1 cells co-transfected with NHR responsive luciferase reporter incubated for 18 hrs by luciferase assay.

The target of experiment [4] is T4, Retinoic acid receptor alpha (Homo sapiens, UniProt P10276).
T4 sequence (P10276 whole entry): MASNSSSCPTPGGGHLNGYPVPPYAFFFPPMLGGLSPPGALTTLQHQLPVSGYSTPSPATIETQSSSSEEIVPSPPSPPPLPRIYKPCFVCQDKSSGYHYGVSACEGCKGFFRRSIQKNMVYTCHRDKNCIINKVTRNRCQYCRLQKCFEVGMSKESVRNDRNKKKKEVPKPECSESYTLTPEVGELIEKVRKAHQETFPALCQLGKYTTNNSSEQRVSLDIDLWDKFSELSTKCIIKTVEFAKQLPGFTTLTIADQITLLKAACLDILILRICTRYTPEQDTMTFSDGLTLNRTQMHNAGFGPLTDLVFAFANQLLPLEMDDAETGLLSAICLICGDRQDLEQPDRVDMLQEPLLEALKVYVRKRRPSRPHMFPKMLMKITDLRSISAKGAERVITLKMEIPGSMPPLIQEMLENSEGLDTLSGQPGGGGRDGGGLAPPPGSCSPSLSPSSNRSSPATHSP
Put plainly: Agonist activity at RARalpha (unknown origin) transfected in green monkey CV-1 cells co-transfected with NHR responsive luciferase reporter incubated for 18 hrs by luciferase assay.

One molecule from ChEMBL document CHEMBL6114960, “Discovery of First-in-Class FXR and HSD17B13 Dual Modulator for the Treatment of Metabolic Dysfunction-Associated Fatty Liver Disease” (J Med Chem, 2025) can be followed below.

A word on the EC50: it is the concentration at which the effect is half-maximal.

Turning to `O=C(O)c1ccc(-c2ccc(OCc3c(-c4c(Cl)cccc4Cl)noc3C3CC3)cc2)cc1`, the concentration for a half-maximal effect (EC50) in experiment [1] is 0.132 µM; in experiment [2], greater than 10 µM; in experiment [3], greater than 10 µM; in experiment [4] it was greater than 10 µM.
